Measured values published in ChEMBL document CHEMBL1201862, “PubChem BioAssay data set” (2004).
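Step 1: Grow cells in 96-well plates. Step 2: Expose to compound for 48 hours at 5 concentrations. Step 3: Interpolate endpoints linearly; if unreached, use highest concentration. Here, GI50 denotes the concentration required for 50% inhibition of growth.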 Activity calls are given as the source filed them. Cut-off read from the data, not from the text of the source: active = GI50 up to about 1.1 µM and inactive = higher.

Key:
Assay in all cases: inhibition of tumour cell growth, NCI panel, 48 h
[1] = test system: SF-295
[2] = test system: RPMI-8226
[3] = test system: HL-60
[4] = test system: DU-145
[5] = test system: SK-MEL-28
[6] = test system: PC-3
[7] = test system: LOX IMVI
[8] = test system: SK-MEL-5
[9] = test system: UO-31
[10] = test system: HOP-92
[11] = test system: OVCAR-4
[12] = test system: OVCAR-8
[13] = test system: NCI-H522
[14] = test system: NCI-H226
[15] = test system: SK-OV-3
[16] = test system: HCT-15
[17] = test system: SR
[18] = test system: SF-539
[19] = test system: CAKI-1
[20] = test system: 786-0

Structure (SMILES) | GI50 [1] | GI50 [2] | GI50 [3] | GI50 [4] | GI50 [5] | GI50 [6] | GI50 [7] | GI50 [8] | GI50 [9] | GI50 [10] | GI50 [11] | GI50 [12] | GI50 [13] | GI50 [14] | GI50 [15] | GI50 [16] [µM] | GI50 [17] | GI50 [18] | GI50 [19] | GI50 [20]
CN(O)C(=S)c1ccccc1 | 3.48 µM (inactive) | 0.325 µM (active) | 0.233 µM (active) | 41.2 µM (inactive) | 3.31 µM (inactive) | 3.23 µM (inactive) | 1.57 µM (inactive) | 1.7 µM (inactive) | 5.35 µM (inactive) | 5.25 µM (inactive) | 1.88 µM (inactive) | 2.47 µM (inactive) | 0.0944 µM (active) | 34.2 µM (inactive) | 11.3 µM (inactive) | 2.47 | 0.178 µM (active) | 9.59 µM (inactive) | 4.25 µM (inactive) | 1.38 µM (inactive)
O=CN/C=C/c1ccccc1 | > 100 µM (inactive) | > 100 µM (inactive) | > 100 µM (inactive) | > 100 µM (inactive) | > 100 µM (inactive) | > 100 µM (inactive) | > 100 µM (inactive) | > 100 µM (inactive) | > 87.3 µM (inactive) | > 100 µM (inactive) | > 100 µM (inactive) | > 100 µM (inactive) | > 100 µM (inactive) | > 100 µM (inactive) | > 100 µM (inactive) | > 100 | > 94.8 µM (inactive) | > 100 µM (inactive) | > 100 µM (inactive) | > 100 µM (inactive)
O=c1c2ccccc2[se]n1-c1cccnc1 | 31.9 µM (inactive) | 34.5 µM (inactive) | 30.1 µM (inactive) | 18.2 µM (inactive) | 24.7 µM (inactive) | 22.3 µM (inactive) | 24.5 µM (inactive) | 12.9 µM (inactive) | 35.2 µM (inactive) | 15.9 µM (inactive) | 36.2 µM (inactive) | 24.9 µM (inactive) | 20.7 µM (inactive) | 28.4 µM (inactive) | > 100 µM (inactive) | 23.6 | 34.7 µM (inactive) | 21.9 µM (inactive) | 42.3 µM (inactive) | 31.4 µM (inactive)
CC(C)(C)N(Cc1ccccc1)C(=O)/C=C\[S+]([O-])c1ccccc1 (stereo not given) | 13.4 µM (inactive) | 1.84 µM (inactive) | 2.1 µM (inactive) | 3.85 µM (inactive) | 7.73 µM (inactive) | 3.56 µM (inactive) | 1.73 µM (inactive) | 5.25 µM (inactive) | 2.34 µM (inactive) | 3.37 µM (inactive) | 2.32 µM (inactive) | 1.84 µM (inactive) | 1.19 µM (inactive) | 5.07 µM (inactive) | 7.62 µM (inactive) | 3.75 | 1.58 µM (inactive) | 3.94 µM (inactive) | 5.85 µM (inactive) | 1.83 µM (inactive)
O=C1C=CC(=O)[C@H]2C3C=CC(C4C3C3(Cl)C(Cl)=C(Cl)[C@]4(Cl)C3(Cl)Cl)[C@@H]12 (stereo not given in full) | 12.5 µM (inactive) | 3.3 µM (inactive) | 1.57 µM (inactive) | 8.97 µM (inactive) | 4.91 µM (inactive) | 4.94 µM (inactive) | 3.32 µM (inactive) | 3.55 µM (inactive) | 10.3 µM (inactive) | 2.18 µM (inactive) | 4.4 µM (inactive) | 8.47 µM (inactive) | 11 µM (inactive) | 6.47 µM (inactive) | 14.2 µM (inactive) | 4.11 | 1.66 µM (inactive) | 5.28 µM (inactive) | 11.5 µM (inactive) | 5.94 µM (inactive)
COc1cc(S(=O)(=O)Nc2ccc(-c3csc(N4C(=O)CSC4c4cccc(Oc5ccccc5)c4)n3)cc2)ccc1Cl (stereo not given) | 65.8 µM (inactive) | 39.2 µM (inactive) | 21.1 µM (inactive) | 48.4 µM (inactive) | 23 µM (inactive) | 32.7 µM (inactive) | 32.7 µM (inactive) | 32.8 µM (inactive) | 47.5 µM (inactive) | 46.7 µM (inactive) | 52.6 µM (inactive) | 47 µM (inactive) | 24.2 µM (inactive) | 32.1 µM (inactive) | 71 µM (inactive) | 61.7 | 33.7 µM (inactive) | 31.9 µM (inactive) | > 100 µM (inactive) | 46.9 µM (inactive)
O=C1c2ccccc2C(=O)c2c1ccc1c3ccccc3n(-c3ccccc3)c21 | 18.2 µM (inactive) | 7.24 µM (inactive) | 2.03 µM (inactive) | 18.7 µM (inactive) | 17.9 µM (inactive) | 28.1 µM (inactive) | 14.5 µM (inactive) | 16.1 µM (inactive) | 21.3 µM (inactive) | 4.84 µM (inactive) | 18.8 µM (inactive) | 27.2 µM (inactive) | 15.4 µM (inactive) | 26.1 µM (inactive) | > 100 µM (inactive) | 16.1 | 5.89 µM (inactive) | 19.1 µM (inactive) | 18.2 µM (inactive) | 21.3 µM (inactive)
CCCC(=O)OC[n+]1ccc(-c2c(COC(=O)NC(C)C)c(COC(=O)NC(C)C)c3n2CCC3)cc1 | 81.7 µM (inactive) | > 100 µM (inactive) | 33.3 µM (inactive) | 31.2 µM (inactive) | > 100 µM (inactive) | 92.7 µM (inactive) | > 100 µM (inactive) | > 100 µM (inactive) | > 100 µM (inactive) | > 100 µM (inactive) | > 100 µM (inactive) | > 100 µM (inactive) | > 100 µM (inactive) | > 100 µM (inactive) | > 100 µM (inactive) | > 100 | 4.99 µM (inactive) | 28.1 µM (inactive) | 21.8 µM (inactive) | 51.9 µM (inactive)
COC(=O)[C@]12CC[C@H]3CN(C(=O)OCc4ccccc4)[C@H]([C@H]31)[C@H](C(=O)OCC[Si](C)(C)C)N2S(=O)(=O)c1ccc(C)cc1 | 29 µM (inactive) | 8.45 µM (inactive) | 8.85 µM (inactive) | > 100 µM (inactive) | > 100 µM (inactive) | 12.1 µM (inactive) | 94.4 µM (inactive) | 12.2 µM (inactive) | 30.3 µM (inactive) | 3.13 µM (inactive) | 11.4 µM (inactive) | > 100 µM (inactive) | > 100 µM (inactive) | > 100 µM (inactive) | > 100 µM (inactive) | > 100 | 39.2 µM (inactive) | > 100 µM (inactive) | > 100 µM (inactive) | > 100 µM (inactive)
CC/C(Cl)=N\OC(=O)Nc1ccc(OC)c(C)c1 | 80.4 µM (inactive) | 11.9 µM (inactive) | 3.5 µM (inactive) | 28 µM (inactive) | 23.2 µM (inactive) | 28.8 µM (inactive) | 10.9 µM (inactive) | 18.7 µM (inactive) | 15.3 µM (inactive) | 2.82 µM (inactive) | 16.2 µM (inactive) | 17.5 µM (inactive) | 2.21 µM (inactive) | 26.4 µM (inactive) | 58.6 µM (inactive) | 6.34 | 3.04 µM (inactive) | 17.4 µM (inactive) | 0.832 µM (active) | 12.5 µM (inactive)
O=C1Nc2ccc(Br)cc2/C1=C/C(=O)c1ccccc1 | 17.8 µM (inactive) | 2.46 µM (inactive) | 2.83 µM (inactive) | 10.2 µM (inactive) | 14.8 µM (inactive) | 9.38 µM (inactive) | 1.93 µM (inactive) | 16.7 µM (inactive) | 2.49 µM (inactive) | 4.13 µM (inactive) | 13.7 µM (inactive) | 2.1 µM (inactive) | 2.22 µM (inactive) | 13.9 µM (inactive) | 17.6 µM (inactive) | 2.49 | 4.37 µM (inactive) | 6.08 µM (inactive) | 7.74 µM (inactive) | 1.67 µM (inactive)
CC(=O)Nc1ccc(/C=C/[N+](=O)[O-])cc1 | 5.71 µM (inactive) | 1.66 µM (inactive) | 2.84 µM (inactive) | 5.11 µM (inactive) | 1.83 µM (inactive) | 5.71 µM (inactive) | 1.71 µM (inactive) | 2.36 µM (inactive) | 2 µM (inactive) | 4.14 µM (inactive) | 2.9 µM (inactive) | 6.07 µM (inactive) | 0.24 µM (active) | 1.67 µM (inactive) | 8.93 µM (inactive) | 2.33 | 0.404 µM (active) | 2.37 µM (inactive) | 0.573 µM (active) | 2.61 µM (inactive)
CN(C)CCNC(=O)c1cccc2nc3c(nc12)-c1ccccc1C3=O | 17.9 µM (inactive) | 7.38 µM (inactive) | 6.3 µM (inactive) | 29.9 µM (inactive) | 16 µM (inactive) | 17.6 µM (inactive) | 2.83 µM (inactive) | 12.1 µM (inactive) | 12.1 µM (inactive) | 16.4 µM (inactive) | 20.8 µM (inactive) | 16.4 µM (inactive) | 13.5 µM (inactive) | 14.4 µM (inactive) | 26.7 µM (inactive) | 10.3 | 1.14 µM (inactive) | 10.2 µM (inactive) | 13.6 µM (inactive) | 8.11 µM (inactive)
